pEC50: −log10 of the molar value.
Tests used:
tocopherol hydroxylase = test: Tissue enrichment in δ-tocopherol in mice in vivo (diet feeding, GC-MS); conditions: 10 days
Procedure: Two groups of mice (n=3) were fed a chow diet enriched with δ-tocopherol (6000 mg per kg diet), with or without 500 mg per kg (R)-2-(9-(1H-1,2,4-triazol-1-yl)nonyl)-2,5,7,8-tetramethylchroman-6-ol. After 10 days on diet, mice were fasted for 5 hrs, euthanized, and tocopherol concentrations determined in plasma, liver and bile, using GC-MS procedures and d9-3′-carboxyethylchromanol as internal standard (Sontag T J et al.).
Therefore data shown in FIG. 2 are presented as the δ-tocopherol/α-tocopherol ratio, where an increase in the ratio reflects enrichment in δ-tocopherol relative to α-tocopherol.

[1] = biological target: T1, tocopherol hydroxylase activity in HepG2/C3A cultures (Homo sapiens, UniProt P78329); test: Metabolism of γ-tocopherol (ω-oxidation products by GC-MS) in HepG2/C3A hepatoblastoma cultures; format: cell-based; conditions: 48 hours; for pEC50: 4 hour pre-incubation, 25 μM γ-tocopherol as substrate, read-out: concentration required to inhibit tocopherol hydroxylase activity by 50% (EC50)
T1 construct: Confluent cultures of the human heptoblastoma cell line, HepG2/C3A; endogenous in cells; host or cells: HepG2/C3A
T1 sequence (P78329 5-520): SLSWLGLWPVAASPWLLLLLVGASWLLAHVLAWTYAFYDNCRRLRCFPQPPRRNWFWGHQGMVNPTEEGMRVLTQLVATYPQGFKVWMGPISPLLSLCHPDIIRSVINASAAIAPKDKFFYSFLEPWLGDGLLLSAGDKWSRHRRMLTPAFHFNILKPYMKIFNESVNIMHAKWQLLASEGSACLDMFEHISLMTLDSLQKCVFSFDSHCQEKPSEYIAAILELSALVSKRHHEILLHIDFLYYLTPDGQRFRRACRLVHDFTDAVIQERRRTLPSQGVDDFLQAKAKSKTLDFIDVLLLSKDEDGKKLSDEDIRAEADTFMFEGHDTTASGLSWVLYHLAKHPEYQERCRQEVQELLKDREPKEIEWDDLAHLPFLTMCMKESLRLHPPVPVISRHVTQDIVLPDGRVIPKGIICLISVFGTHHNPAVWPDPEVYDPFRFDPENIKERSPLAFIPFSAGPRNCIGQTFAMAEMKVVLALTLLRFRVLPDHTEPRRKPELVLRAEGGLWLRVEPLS
Procedure: (§1) (R)-2-(9-(1H-1,2,4-triazol-1-yl)nonyl)-2,5,7,8-tetramethylchroman-6-ol and γ-tocopherol stock solutions were prepared in ethanol. Confluent cultures of the human heptoblastoma cell line, HepG2/C3A, were pre-incubated with varying concentrations of (R)-2-(9-(1H-1,2,4-triazol-1-yl)nonyl)-2,5,7,8-tetramethylchroman-6-ol or ethanol for 4 hours, followed by addition of 25 μM γ-tocopherol. After 48 hours, culture media was collected and analyzed for ω-oxidation products of γ-tocopherol (the 3′- and 5′-carboxychromanols) by GC-MS, using d9-3′-carboxyethylchromanol as internal standard (Sontag T J et al. (2002) J Biol Chem 277: 25290-25296).
The effect of the triazole compounds were tested in human hepatoblastoma cell culture as described in Example 1, i.e. using 25 μM γ-tocopherol as substrate and 4 hour pre-incubation with the synthetic inhibitors.

HepG2/C3A = test: Cell protein and monolayer morphology of HepG2/C3A cultures; format: cell-based, human; conditions: 48 hours
Procedure: as §1
There was no effect of (R)-2-(9-(1H-1,2,4-triazol-1-yl)nonyl)-2,5,7,8-tetramethylchroman-6-ol on cell protein and all monolayers appeared normal in morphology.

[2] = 500 mg per kg diet with δ-tocopherol 6000 mg per kg diet, versus control, P<0.05

pEC50 [1] | Tocopherol hydroxylase activity ([1]; at compound concentrations above 10 nM, 25 μM γ-tocopherol) | effect on cell protein (HepG2/C3A) | morphology of monolayers (HepG2/C3A) | SMILES | δ-tocopherol/α-tocopherol ratio in mouse liver (tocopherol hydroxylase; [2]) | α-tocopherol status (tocopherol hydroxylase; mice, 500 mg per kg diet) | δ-tocopherol/α-tocopherol ratio in bile (tocopherol hydroxylase; [2])
~9.00 | completely abolished | no effect | normal | Cc1c(C)c2c(c(C)c1O)CC[C@@](C)(CCCCCCCCCn1cncn1)O2 [(R)-2-(9-(1H-1,2,4-triazol-1-yl)nonyl)-2,5,7,8-tetramethylchroman-6-ol] | doubling | no evidence that α-tocopherol status was affected | –
8.70 to 9.00 | – | – | – | Cc1c(C)c2c(c(C)c1O)CC[C@@](C)(CCCCCCCCCn1ccnc1)O2 [(R)-2-(9-(1H-imidazol-1-yl)nonyl)-2,5,7,8-tetramethylchroman-6-ol] | – | – | tripled
